biological target: T1, human GLP-1R (Homo sapiens, UniProt P43220); test: GLP-1R cAMP assay (Example B1a, HTRF, 30 min at room temperature); format: cell-based; details: cAMP accumulation in HEK293 expressing human GLP-1R, no BETP, 30 min room temperature (Method B1a, compounds ID 1-609), Table 1; read-out: EC50
T1 construct: host or cells: HEK293
Experimental: Assay was carried out with HEK293 expressing human GLP-1R using HTRF assay, developed by Wuxi Apptec. The method is a competitive assay between native cAMP produced by the cells and exogenous cAMP labeled with a proprietary dye d2. The tracer binding is visualized by a mAb anti-cAMP labeled with Cryptate. The signal (i.e. energy transfer) is inversely proportional to the concentration of CAMP in either standard or experimental sample. Compounds were tested in the absence of BETP. Ten microliter of cell suspension in assay buffer (5 mM HEPES, 500 μM IBMX, 0.1% BSA) were added to each well (1,000 cells per well) in a low volume 384-well plate for the assay. Serially diluted compounds were added in 100 nL volume to duplicate wells, by Labcyte Echo. GLP-1 (7-37) was used as positive control. Assay plate was incubated for 30 minutes at room temperature. Stock of cAMP Detection Solution was prepared by mixing 38 parts of cAMP lysis buffer, 1 part of cAMP-D2, 1 part of anti-cAMP cryptate reagent (Cisbio #62AM4PEJ). Ten microliter of the cAMP Detection Solution was added to each well, and the assay plate was incubated for 1 hour at room temperature in the dark. Plates were read on Envision plate reader. The data were analyzed by ScreenUltra in Dotmatics, with % activation expressed using following formula: (Well data−negative control)/(postive control−negative control)*100. Dose response curves were plotted and EC50 values calculated by non-linear regression using 4-parameter fit.

T1 sequence (P43220 24-463): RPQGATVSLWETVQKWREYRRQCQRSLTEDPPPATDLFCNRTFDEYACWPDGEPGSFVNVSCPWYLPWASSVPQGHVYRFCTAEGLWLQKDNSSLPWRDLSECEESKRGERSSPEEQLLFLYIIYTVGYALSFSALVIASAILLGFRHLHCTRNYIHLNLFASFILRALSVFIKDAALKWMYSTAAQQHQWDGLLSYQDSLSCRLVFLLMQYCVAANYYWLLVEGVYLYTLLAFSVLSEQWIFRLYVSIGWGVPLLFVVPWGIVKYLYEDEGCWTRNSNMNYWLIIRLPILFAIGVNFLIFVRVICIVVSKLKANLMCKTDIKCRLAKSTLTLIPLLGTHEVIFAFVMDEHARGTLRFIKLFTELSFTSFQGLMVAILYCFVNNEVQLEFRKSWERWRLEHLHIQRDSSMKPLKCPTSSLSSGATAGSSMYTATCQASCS

EC50 | SMILES
18.4 nM | Cc1cc(-n2nc3c(c2-n2ccn(-c4ccc5[nH]ncc5c4F)c2=O)[C@@H]2CC[C@H](C3)N2C(=O)c2cc3cc([C@H]4CCOC(C)(C)C4)ccc3n2[C@@]2(c3noc(=O)[nH]3)C[C@@H]2C)cc(C)c1F [Compound 406, 3-((1S,2S)-1-(5-((S)-2,2-dimethyltetrahydro-2H-pyran-4-yl)-2-((4S,7R)-3-(3-(4-fluoro-1H-indazol-5-yl)-2-oxo-2,3-dihydro-1H-imidazol-1-yl)-2-(4-fluoro-3,5-dimethylphenyl)-2,4,5,6,7,8-hexahydro-4,7-epiminocyclohepta [c]pyrazole-9-carbonyl)-1H-indol-1-yl)-2-methylcyclopropyl)-1,2,4-oxadiazol-5 (4H)-one]
≥ 10000 nM | Cc1cc(-n2nc3c(c2-n2ccn(-c4ccc5c(cnn5C)c4F)c2=O)[C@@H]2CC[C@H](C3)N2C(=O)c2cc3cc([C@@H]4CCOC5(CC5)C4)ccc3n2[C@]2(c3noc(=O)[nH]3)C[C@H]2C)cc(C)c1F [Compound 516, 3-[(1R,2R)-1-[2-[(1S,8R)-4-(4-fluoro-3,5-dimethyl-phenyl)-3-[3-(4-fluoro-1-methyl-indazol-5-yl)-2-oxo-imidazol-1-yl]-4,5,11-triazatricyclo[6.2.1.02,6]undeca-2,5-diene-11-carbonyl]-5-[(7R)-4-oxaspiro[2.5]octan-7-yl]indol-1-yl]-2-methyl-cyclopropyl]-4H-1,2,4-oxadiazol-5-one]
≥ 10000 nM | Cc1cc(-n2nc3c(c2-n2ccn(-c4ccc5c(cnn5C)c4F)c2=O)[C@@H]2CCC[C@H](C3)N2S(=O)(=O)c2cc3cc(C4CCOCC4)ccc3n2[C@]2(c3noc(=O)[nH]3)C[C@@H]2C)cc(C)c1F [Compound 534, 3-[(1R,2S)-1-[2-[[(1S,8R)-4-(4-fluoro-3,5-dimethyl-phenyl)-3-[3-(4-fluoro-1-methyl-indazol-5-yl)-2-oxo-imidazol-1-yl]-4,5,12-triazatricyclo[6.3.1.02,6]dodeca-2,5-dien-12-yl]sulfonyl]-5-tetrahydropyran-4-yl-indol-1-yl]-2-methyl-cyclopropyl]-4H-1,2,4-oxadiazol-5-one]

Continued, molecule first:

SMILES | EC50
Cc1cc(-n2nc3c(c2-n2ccn(-c4ccc5c(cnn5C)c4F)c2=O)[C@@H]2COC[C@H](C3)N2C(=O)c2cc3cc(C4CCOC5(CC5)C4)ccc3n2[C@@]2(c3noc(=O)[nH]3)C[C@@H]2C)cc(C)c1F (stereo partly drawn) [Compound 220, 3-((1S,2S)-1-(2-((4R,8S)-3-(3-(4-fluoro-1-methyl-1H-indazol-5-yl)-2-oxo-2,3-dihydro-1H-imidazol-1-yl)-2-(4-fluoro-3,5-dimethylphenyl)-2,4,5,7,8,9-hexahydro-4,8-epiminooxocino [5,4-c]pyrazole-10-carbonyl)-5-(4-oxaspiro[2.5]octan-7-yl)-1H-indol-1-yl)-2-methylcyclopropyl)-1,2,4-oxadiazol-5 (4H)-one] | 795 nM
Cc1cc(-n2nc3c(c2-n2ccn(-c4ccc5c(cnn5C)c4F)c2=O)[C@@H]2CC[C@H](C3)N2C(=O)c2cc3cc([C@H]4CCOC(C)(C)C4)ccc3n2C(C)(C)c2noc(=O)[nH]2)cc(C)c1F [Compound 140, 3-[1-[5-[(4S)-2,2-dimethyltetrahydropyran-4-yl]-2-[(1S,8R)-4-(4-fluoro-3,5-dimethyl-phenyl)-3-[3-(4-fluoro-1-methyl-indazol-5-yl)-2-oxo-imidazol-1-yl]-4,5,11-triazatricyclo[6.2.1.02,6]undeca-2,5-diene-11-carbonyl]indol-1-yl]-1-methyl-ethyl]-4H-1,2,4-oxadiazol-5-one] | > 10000 nM
Cc1cc(-n2nc3c(c2-n2ccn(-c4ccc5c(cnn5C(F)F)c4F)c2=O)[C@@H]2CC[C@H](C3)N2C(=O)c2cc3cc([C@H]4CCOC(C)(C)C4)ccc3n2[C@@]2(c3noc(=O)[nH]3)C[C@@H]2C)cc(C)c1F [Compound 310, 3-((1S,2S)-1-(2-((4S,7R)-3-(3-(1-(difluoromethyl)-4-fluoro-1H-indazol-5-yl)-2-oxo-2,3-dihydro-1H-imidazol-1-yl)-2-(4-fluoro-3,5-dimethylphenyl)-2,4,5,6,7,8-hexahydro-4,7-epiminocyclohepta [c]pyrazole-9-carbonyl)-5-((S)-2,2-dimethyltetrahydro-2H-pyran-4-yl)-1H-indol-1-yl)-2-methylcyclopropyl)-1,2,4-oxadiazol-5(4H)-one] | 182 nM
Cc1cc(-n2nc3c(c2-n2ccn(-c4cccc(C(N)=O)c4F)c2=O)[C@@H]2CC[C@H](C3)N2C(=O)c2cc3cc([C@H]4CCOC(C)(C)C4)ccc3n2C2(c3noc(=O)[nH]3)CC2)cc(C)c1F [Compound 125, 3-[3-[(1S,8R)-11-[5-[(4S)-2,2-dimethyltetrahydropyran-4-yl]-1-[1-(5-oxo-4H-1,2,4-oxadiazol-3-yl)cyclopropyl]indole-2-carbonyl]-4-(4-fluoro-3,5-dimethyl-phenyl)-4,5,11-triazatricyclo[6.2.1.02,6]undeca-2,5-dien-3-yl]-2-oxo-imidazol-1-yl]-2-fluoro-benzamide] | > 10000 nM
Cc1cc(-n2nc3c(c2-c2nc(-c4ccc5c(cnn5C)c4F)c(C)[nH]2)[C@H](C)N(C(=O)c2cc4cc([C@H]5CCOC(C)(C)C5)ccc4n2[C@@]2(c4noc(=O)[nH]4)C[C@@H]2C)CC3)cc(C)c1F [Compound 24, 3-((1S,2S)-1-(5-((S)-2,2-dimethyltetrahydro-2H-pyran-4-yl)-2-((S)-3-(4-(4-fluoro-1-methyl-1H-indazol-5-yl)-5-methyl-1H-imidazol-2-yl)-2-(4-fluoro-3,5-dimethylphenyl)-4-methyl-4,5,6,7-tetrahydro-2H-pyrazolo[4,3-c]pyridine-5-carbonyl)-1H-indol-1-yl)-2-methylcyclopropyl)-1,2,4-oxadiazol-5 (4H)-one] | > 10000 nM
Cc1cc(-n2nc3c(c2-n2ccn(-c4cc(F)c5c(cnn5C)c4F)c2=O)[C@@H]2COC[C@H](C3)N2C(=O)c2cc3cc(C4CCOC5(CC5)C4)ccc3n2[C@@]2(c3noc(=O)[nH]3)C[C@@H]2C)cc(C)c1F (stereo partly drawn) [Compound 242, 3-((1S,2S)-1-(2-((4R,8S)-3-(3-(4,7-difluoro-1-methyl-1H-indazol-5-yl)-2-oxo-2,3-dihydro-1H-imidazol-1-yl)-2-(4-fluoro-3,5-dimethylphenyl)-2,4,5,7,8,9-hexahydro-4,8-epiminooxocino [5,4-c]pyrazole-10-carbonyl)-5-(4-oxaspiro[2.5]octan-7-yl)-1H-indol-1-yl)-2-methylcyclopropyl)-1,2,4-oxadiazol-5 (4H)-one] | 168 nM
Cc1cc(-n2nc3c(c2-n2ccn(-c4ccc5c(cnn5C)c4F)c2=O)[C@@H]2CC[C@H](C3)N2C(=O)c2cc3ccc([C@H]4CCOC(C)(C)C4)cc3nc2[C@@]2(c3noc(=O)[nH]3)C[C@@H]2C)cc(C)c1F [Compound 318, 3-[(1R,2S)-1-[7-[(4S)-2,2-dimethyltetrahydropyran-4-yl]-3-[(1S,8R)-4-(4-fluoro-3,5-dimethyl-phenyl)-3-[3-(4-fluoro-1-methyl-indazol-5-yl)-2-oxo-imidazol-1-yl]-4,5,11-triazatricyclo[6.2.1.02,6]undeca-2,5-diene-11-carbonyl]-2-quinolyl]-2-methyl-cyclopropyl]-4H-1,2,4-oxadiazol-5-one] | 870 nM

From patent US12617783B2, “Heterocyclic GLP-1R agonists” (BIOMEA FUSION, INC., priority 2024, dated 2026)
